Here are results for four cell lines from the supplement of paper PMC10307832.

What all share (experiment): relative viability (nuclei count vs DMSO), 5 days (fraction); higher = more cells survive
Compound in the test “AZD5582 + Dasatinib”: C[C@@H](C(=O)N[C@@H](C1CCCCC1)C(=O)N2CCC[C@H]2C(=O)N[C@@H]3[C@@H](CC4=CC=CC=C34)OCC#CC#CCO[C@@H]5CC6=CC=CC=C6[C@@H]5NC(=O)[C@@H]7CCCN7C(=O)[C@H](C8CCCCC8)NC(=O)[C@H](C)NC)NC [AZD5582] + Cc1nc(Nc2ncc(C(=O)Nc3c(C)cccc3Cl)s2)cc(N2CCN(CCO)CC2)n1 [Dasatinib] (partner 0.075 µM)
The procedure, abridged: (§1)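 Lung cancer cell lines were seeded in 1536-well plates and dosed by pin tool the next day, with either a single drug or a fixed anchor-drug dose combined with five library-drug doses (not always all listed) spaced in √10 steps. Five days later, one step fixed the cells and stained their nuclei (final 0.05% Triton X-100, 1% formaldehyde, 1 ug/ml Hoechst), and nuclei were counted on 4× images. Relative viability is the nuclei count in treated wells divided by the count in vehicle wells, and each value is the median of duplicate plates.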

Compound in the test “AZD5582 + Linsitinib”: C[C@@H](C(=O)N[C@@H](C1CCCCC1)C(=O)N2CCC[C@H]2C(=O)N[C@@H]3[C@@H](CC4=CC=CC=C34)OCC#CC#CCO[C@@H]5CC6=CC=CC=C6[C@@H]5NC(=O)[C@@H]7CCCN7C(=O)[C@H](C8CCCCC8)NC(=O)[C@H](C)NC)NC [AZD5582] + C[C@]1(O)C[C@@H](c2nc(-c3ccc4ccc(-c5ccccc5)nc4c3)c3c(N)nccn32)C1 [Linsitinib] (partner 1 µM)
The procedure, abridged:
as §1

Compound in the test “AZD5582 + Navitoclax”: C[C@@H](C(=O)N[C@@H](C1CCCCC1)C(=O)N2CCC[C@H]2C(=O)N[C@@H]3[C@@H](CC4=CC=CC=C34)OCC#CC#CCO[C@@H]5CC6=CC=CC=C6[C@@H]5NC(=O)[C@@H]7CCCN7C(=O)[C@H](C8CCCCC8)NC(=O)[C@H](C)NC)NC [AZD5582] + CC1(C)CCC(c2ccc(Cl)cc2)=C(CN2CCN(c3ccc(C(=O)NS(=O)(=O)c4ccc(N[C@H](CCN5CCOCC5)CSc5ccccc5)c(S(=O)(=O)C(F)(F)F)c4)cc3)CC2)C1 [Navitoclax] (partner 0.5 µM)
A digest of the protocol:
as §1

Compound in the test “AZD5582 + Palbociclib”: C[C@@H](C(=O)N[C@@H](C1CCCCC1)C(=O)N2CCC[C@H]2C(=O)N[C@@H]3[C@@H](CC4=CC=CC=C34)OCC#CC#CCO[C@@H]5CC6=CC=CC=C6[C@@H]5NC(=O)[C@@H]7CCCN7C(=O)[C@H](C8CCCCC8)NC(=O)[C@H](C)NC)NC [AZD5582] + CC(=O)c1c(C)c2cnc(Nc3ccc(N4CCNCC4)cn3)nc2n(C2CCCC2)c1=O [Palbociclib] (partner 0.5 µM)
A digest of the protocol:
as §1

Compound in the test “AZD5582 + Trametinib”: C[C@@H](C(=O)N[C@@H](C1CCCCC1)C(=O)N2CCC[C@H]2C(=O)N[C@@H]3[C@@H](CC4=CC=CC=C34)OCC#CC#CCO[C@@H]5CC6=CC=CC=C6[C@@H]5NC(=O)[C@@H]7CCCN7C(=O)[C@H](C8CCCCC8)NC(=O)[C@H](C)NC)NC [AZD5582] + CC(=O)Nc1cccc(-n2c(=O)n(C3CC3)c(=O)c3c(Nc4ccc(I)cc4F)n(C)c(=O)c(C)c32)c1 [Trametinib] (partner 0.02 µM)
The procedure, abridged: as §1

For NCI-H1792, the relative viability with AZD5582 + Dasatinib (first compound 0.001581 µM) amounted to 0.861; with AZD5582 + Dasatinib (first compound 0.005 µM) it was 0.911; in the test with AZD5582 + Dasatinib (first compound 0.01581 µM) it was 0.819; with AZD5582 + Dasatinib (first compound 0.05 µM), 1.03; in the test with AZD5582 + Linsitinib (first compound 0.001581 µM), 0.49; with AZD5582 + Linsitinib (first compound 0.005 µM), 0.588. The relative viability with AZD5582 + Linsitinib (first compound 0.01581 µM) amounted to 0.516; in the test with AZD5582 + Linsitinib (first compound 0.05 µM), 0.792; with AZD5582 + Navitoclax (first compound 0.001581 µM), 0.608; with AZD5582 + Navitoclax (first compound 0.005 µM) it was 0.632; with AZD5582 + Navitoclax (first compound 0.01581 µM), 0.578; with AZD5582 + Navitoclax (first compound 0.05 µM), 0.836. Further, the relative viability with AZD5582 + Palbociclib (first compound 0.001581 µM) was found to be 0.629; with AZD5582 + Palbociclib (first compound 0.005 µM) it was 0.715; in the test with AZD5582 + Palbociclib (first compound 0.01581 µM), 0.624; in the test with AZD5582 + Palbociclib (first compound 0.05 µM), 0.776; with AZD5582 + Trametinib (first compound 0.001581 µM) it was 0.347; with AZD5582 + Trametinib (first compound 0.005 µM), 0.482. The relative viability in the test with AZD5582 + Trametinib (first compound 0.01581 µM) came to 0.478; with AZD5582 + Trametinib (first compound 0.05 µM), 0.669.

Regarding SK-LU-1, the relative viability in the test with AZD5582 + Dasatinib (first compound 0.001581 µM) turned out to be 0.147; with AZD5582 + Dasatinib (first compound 0.005 µM) it was 0.0852; in the test with AZD5582 + Dasatinib (first compound 0.01581 µM), 0.174; with AZD5582 + Dasatinib (first compound 0.05 µM), 0.0634; in the test with AZD5582 + Linsitinib (first compound 0.001581 µM), 0.613; in the test with AZD5582 + Linsitinib (first compound 0.005 µM) it was 0.495. In addition, the relative viability is 1.23 with AZD5582 + Linsitinib (first compound 0.01581 µM); 0.273 with AZD5582 + Linsitinib (first compound 0.05 µM); 0.462 with AZD5582 + Navitoclax (first compound 0.001581 µM); 0.471 with AZD5582 + Navitoclax (first compound 0.005 µM); 0.819 with AZD5582 + Navitoclax (first compound 0.01581 µM); 0.351 with AZD5582 + Navitoclax (first compound 0.05 µM). The relative viability with AZD5582 + Palbociclib (first compound 0.001581 µM) amounted to 0.333; in the test with AZD5582 + Palbociclib (first compound 0.005 µM), 0.366; with AZD5582 + Palbociclib (first compound 0.01581 µM), 0.331; with AZD5582 + Palbociclib (first compound 0.05 µM) it was 0.247; with AZD5582 + Trametinib (first compound 0.001581 µM) it was 0.379; in the test with AZD5582 + Trametinib (first compound 0.005 µM) it was 0.383. Moreover, the relative viability with AZD5582 + Trametinib (first compound 0.01581 µM) amounted to 0.407; with AZD5582 + Trametinib (first compound 0.05 µM), 0.236.

NCI-H1437: the relative viability with AZD5582 + Dasatinib (first compound 0.001581 µM) stood at 0.289; with AZD5582 + Dasatinib (first compound 0.005 µM), 0.452; with AZD5582 + Dasatinib (first compound 0.01581 µM), 0.387; in the test with AZD5582 + Dasatinib (first compound 0.05 µM) it was 0.414; with AZD5582 + Linsitinib (first compound 0.001581 µM), 0.862; in the test with AZD5582 + Linsitinib (first compound 0.005 µM), 0.95. For the same cell line, the relative viability came out at 0.976 with AZD5582 + Linsitinib (first compound 0.01581 µM); 1.01 with AZD5582 + Linsitinib (first compound 0.05 µM); 1.07 with AZD5582 + Navitoclax (first compound 0.001581 µM); 1.09 in the test with AZD5582 + Navitoclax (first compound 0.005 µM); 1.05 in the test with AZD5582 + Navitoclax (first compound 0.01581 µM); 1.04 with AZD5582 + Navitoclax (first compound 0.05 µM). Moreover, the relative viability stood at 0.266 in the test with AZD5582 + Palbociclib (first compound 0.001581 µM); 0.307 with AZD5582 + Palbociclib (first compound 0.005 µM); 0.278 in the test with AZD5582 + Palbociclib (first compound 0.01581 µM); 0.31 with AZD5582 + Palbociclib (first compound 0.05 µM); 0.43 in the test with AZD5582 + Trametinib (first compound 0.001581 µM); 0.572 with AZD5582 + Trametinib (first compound 0.005 µM). The relative viability was found to be 0.461 with AZD5582 + Trametinib (first compound 0.01581 µM) and 0.573 with AZD5582 + Trametinib (first compound 0.05 µM).

For the cell line NCI-H647, the relative viability in the test with AZD5582 + Dasatinib (first compound 0.001581 µM) was 0.175; in the test with AZD5582 + Dasatinib (first compound 0.005 µM) it was 0.187; with AZD5582 + Dasatinib (first compound 0.01581 µM), 0.119; in the test with AZD5582 + Dasatinib (first compound 0.05 µM), 0.207; with AZD5582 + Linsitinib (first compound 0.001581 µM), 1.1; with AZD5582 + Linsitinib (first compound 0.005 µM), 1.01. In addition, the relative viability with AZD5582 + Linsitinib (first compound 0.01581 µM) was found to be 1.25; in the test with AZD5582 + Linsitinib (first compound 0.05 µM), 0.934; with AZD5582 + Navitoclax (first compound 0.001581 µM), 1.02; in the test with AZD5582 + Navitoclax (first compound 0.005 µM), 1.09; with AZD5582 + Navitoclax (first compound 0.01581 µM), 0.919; with AZD5582 + Navitoclax (first compound 0.05 µM), 1.27. Also, the relative viability with AZD5582 + Palbociclib (first compound 0.001581 µM) stood at 0.26; in the test with AZD5582 + Palbociclib (first compound 0.005 µM), 0.39; with AZD5582 + Palbociclib (first compound 0.01581 µM), 0.394; in the test with AZD5582 + Palbociclib (first compound 0.05 µM), 0.387; with AZD5582 + Trametinib (first compound 0.001581 µM), 0.417; with AZD5582 + Trametinib (first compound 0.005 µM), 0.477. Also, the relative viability with AZD5582 + Trametinib (first compound 0.01581 µM) was 0.443; with AZD5582 + Trametinib (first compound 0.05 µM), 0.47.
